Assay results published in US20210300940A1 (Merck Patent GmbH, priority 2018, published 2021).
Counter-ions that a name gives are not always drawn.

Tests used:
TLR7 = target: T1, TLR7 (Homo sapiens, UniProt Q9NYK1); experiment: HEK/293 TLR7 Cell Assay; format: cell-based; conditions: TLR7/NFKb HEK cells, R848 agonist 10 uM final concentration, Steady-Glo readout; read-out: TLR7 potency
T1 construct: expressed in transfected cells; host or cells: HEK/293 cells carrying TLR7 and an NF-kB luciferase reporter
T1 sequence (Q9NYK1 27-1049): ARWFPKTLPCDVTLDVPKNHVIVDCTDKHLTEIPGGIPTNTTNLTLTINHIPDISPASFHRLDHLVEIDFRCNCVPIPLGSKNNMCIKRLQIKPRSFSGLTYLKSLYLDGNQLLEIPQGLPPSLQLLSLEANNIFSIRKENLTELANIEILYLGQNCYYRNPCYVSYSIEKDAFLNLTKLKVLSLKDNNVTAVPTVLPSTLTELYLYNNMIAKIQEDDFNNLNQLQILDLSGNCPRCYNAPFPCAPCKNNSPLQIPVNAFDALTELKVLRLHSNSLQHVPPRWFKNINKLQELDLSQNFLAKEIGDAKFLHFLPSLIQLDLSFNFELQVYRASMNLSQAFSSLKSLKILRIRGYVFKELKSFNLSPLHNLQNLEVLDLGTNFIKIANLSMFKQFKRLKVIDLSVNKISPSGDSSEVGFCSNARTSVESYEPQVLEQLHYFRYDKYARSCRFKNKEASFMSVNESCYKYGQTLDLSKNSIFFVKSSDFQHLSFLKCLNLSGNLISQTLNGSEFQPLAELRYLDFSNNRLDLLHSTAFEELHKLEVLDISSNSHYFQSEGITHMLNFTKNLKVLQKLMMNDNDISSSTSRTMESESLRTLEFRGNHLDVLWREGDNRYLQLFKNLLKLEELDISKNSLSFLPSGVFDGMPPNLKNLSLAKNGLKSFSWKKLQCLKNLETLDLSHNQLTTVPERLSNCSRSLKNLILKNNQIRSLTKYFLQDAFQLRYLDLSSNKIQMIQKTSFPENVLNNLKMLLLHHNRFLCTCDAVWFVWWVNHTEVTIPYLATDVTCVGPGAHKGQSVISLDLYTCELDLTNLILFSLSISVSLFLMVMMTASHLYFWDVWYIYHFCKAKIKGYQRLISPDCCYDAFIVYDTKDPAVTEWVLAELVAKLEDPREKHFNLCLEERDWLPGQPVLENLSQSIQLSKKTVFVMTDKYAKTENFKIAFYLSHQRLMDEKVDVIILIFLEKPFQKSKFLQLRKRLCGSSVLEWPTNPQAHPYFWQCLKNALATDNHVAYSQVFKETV
Method in brief: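 Compounds added to HEK cells expressing TLR7 with an NFκB reporter 30 min ahead of 10 uM R848 challenge; luciferase signal (Steady-Glo) measured after 5 h, cells having been seeded 24 h earlier at 5000 per well.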

TLR8 = target: T2, TLR8 (Homo sapiens, UniProt Q9NR97); experiment: HEK/293 TLR8 Cell Assay; format: cell-based; conditions: HEK cells, R848 agonist 30 uM final concentration, Steady-Glo readout; read-out: TLR8 potency
T2 construct: expressed in transfected cells; host or cells: HEK/293 reporter cells (NF-kB luciferase)
T2 sequence (Q9NR97 27-1041): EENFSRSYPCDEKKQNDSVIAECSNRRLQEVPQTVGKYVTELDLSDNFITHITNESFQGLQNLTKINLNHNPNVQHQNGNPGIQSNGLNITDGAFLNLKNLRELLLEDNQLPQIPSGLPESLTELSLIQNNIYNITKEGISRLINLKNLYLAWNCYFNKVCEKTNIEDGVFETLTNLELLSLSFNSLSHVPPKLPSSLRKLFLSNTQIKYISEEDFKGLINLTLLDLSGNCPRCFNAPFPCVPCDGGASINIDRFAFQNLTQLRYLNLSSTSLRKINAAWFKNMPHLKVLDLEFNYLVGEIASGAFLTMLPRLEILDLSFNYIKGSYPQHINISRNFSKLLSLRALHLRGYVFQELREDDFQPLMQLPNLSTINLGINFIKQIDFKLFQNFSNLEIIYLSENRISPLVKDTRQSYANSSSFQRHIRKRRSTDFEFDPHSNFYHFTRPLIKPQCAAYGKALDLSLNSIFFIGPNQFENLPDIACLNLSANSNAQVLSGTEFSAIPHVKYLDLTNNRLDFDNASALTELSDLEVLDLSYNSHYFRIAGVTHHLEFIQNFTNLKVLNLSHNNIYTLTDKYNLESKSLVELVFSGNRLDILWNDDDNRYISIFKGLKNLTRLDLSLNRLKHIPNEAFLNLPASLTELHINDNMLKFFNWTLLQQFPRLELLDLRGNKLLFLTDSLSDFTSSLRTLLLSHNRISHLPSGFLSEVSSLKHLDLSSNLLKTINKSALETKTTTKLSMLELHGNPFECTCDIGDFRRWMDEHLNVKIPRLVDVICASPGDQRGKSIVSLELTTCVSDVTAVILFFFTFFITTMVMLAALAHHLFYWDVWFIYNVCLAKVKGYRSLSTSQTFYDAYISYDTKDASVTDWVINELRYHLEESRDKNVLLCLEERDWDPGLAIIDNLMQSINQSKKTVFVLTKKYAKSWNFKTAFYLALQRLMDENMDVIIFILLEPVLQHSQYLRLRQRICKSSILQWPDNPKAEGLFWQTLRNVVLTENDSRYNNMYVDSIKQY

IC50 (TLR7) [nM]	IC50 (TLR8) [nM]	Structure (SMILES)
> 150	75 to 150	C[C@@H](O)[C@H](N)C(=O)N1CCC(CC(=O)N[C@@H]2C[C@H](C(F)(F)F)CN(c3ccc(C#N)c4ncccc34)C2)CC1 [Example 184, 2-[1-((2S,3R)-2-Amino-3-hydroxy-butyryl)-piperidin-4-yl]-N-[(3R,5S)-1-(8-cyano-quinolin-5-yl)-5-trifluoromethyl-piperidin-3-yl]-acetamide]
< 75	< 75	C[C@H]1C[C@@H](NC(=O)CCN(C)C)CN(c2ccc(C(F)(F)F)c3ncccc23)C1 [Example 186, 3-Dimethylamino-N-[(3R,5S)-5-methyl-1-(8-trifluoromethyl-quinolin-5-yl)-piperidin-3-yl]-propionamide]
< 75	< 75	C[C@H]1C[C@@H](N)CN(c2cnc(C#N)c3nccnc23)C1 [Example 187, 8-((3R,5S)-3-Amino-5-methyl-piperidin-1-yl)-pyrido[3,4-b]pyrazine-5-carbonitrile hydrochloride]
< 75	< 75	C[C@H]1C[C@@H](NC(=O)CN2CCN(C)CC2)CN(c2cnc(C#N)c3nccnc23)C1 [Example 188, N-[(3R,5S)-1-(5-Cyano-pyrido[3,4-b]pyrazin-8-yl)-5-methyl-piperidin-3-yl]-2-(4-methyl-piperazin-1-yl)-acetamide]
75 to 150	< 75	C[C@H]1C[C@@H](NC(=O)CCC2CCN(C)CC2)CN(c2cnc(C#N)c3nccnc23)C1 [Example 189, N-[(3R,5S)-1-(5-Cyano-pyrido[3,4-b]pyrazin-8-yl)-5-methyl-piperidin-3-yl]-3-(1-methyl-piperidin-4-yl)-propionamide]
75 to 150	< 75	CC(C(=O)N[C@@H]1C[C@H](C)CN(c2cnc(C#N)c3nccnc23)C1)N1CCN(C)CC1 (stereo partly drawn) [Example 190, N-[(3R,5S)-1-(5-Cyano-pyrido[3,4-b]pyrazin-8-yl)-5-methyl-piperidin-3-yl]-2-(4-methyl-piperazin-1-yl)-propionamide]
> 150	< 75	CC(C)[C@H](O)C(=O)N[C@@H]1C[C@H](C)CN(c2cnc(C#N)c3nccnc23)C1 [Example 196, (S)—N-[(3R,5S)-1-(5-Cyano-pyrido[3,4-b]pyrazin-8-yl)-5-methyl-piperidin-3-yl]-2-hydroxy-3-methyl-butyramide]
75 to 150	< 75	COc1ncc(N2C[C@@H](C)C[C@@H](N)C2)c2nccnc12 [Example 199, (3R,5S)-1-(5-Methoxy-pyrido[3,4-b]pyrazin-8-yl)-5-methyl-piperidin-3-ylamine]
< 75	< 75	C[C@H]1C[C@@H](NS(=O)(=O)NC2CCN(C)CC2)CN(c2ccc(C(F)(F)F)c3ncccc23)C1 [Example 200, N-(1-methylpiperidin-4-yl){[(3R,5S)-5-methyl-1-[8-(trifluoromethyl)quinolin-5-yl]piperidin-3-yl]amino}sulfonamide]
< 75	< 75	C[C@H]1C[C@@H](NS(=O)(=O)NCCC2CCN(C)CC2)CN(c2ccc(C(F)(F)F)c3ncccc23)C1 [Example 201, N-[2-(1-methylpiperidin-4-yl)ethyl]{[(3R,5S)-5-methyl-1-[8-(trifluoromethyl)quinolin-5-yl]piperidin-3-yl]amino}sulfonamide]
75 to 150	< 75	C[C@H]1C[C@@H](NS(=O)(=O)NC(=O)CC2CCN(C)CC2)CN(c2ccc(C(F)(F)F)c3ncccc23)C1 [Example 202, N-{[(3R,5S)-5-methyl-1-[8-(trifluoromethyl)quinolin-5-yl]piperidin-3-yl]sulfamoyl}-2-(1-methylpiperidin-4-yl)acetamide]
75 to 150	< 75	C[C@H]1C[C@@H](NS(=O)(=O)NC(=O)CN2CCOCC2)CN(c2ccc(C(F)(F)F)c3ncccc23)C1 [Example 203, N-{[(3R,5S)-5-methyl-1-[8-(trifluoromethyl)quinolin-5-yl]piperidin-3-yl]sulfamoyl}-2-(morpholin-4-yl)acetamide]
< 75	< 75	C[C@H]1C[C@@H](NC(=O)[C@@H]2CCNC2)CN(c2ccc(C(F)(F)F)c3ncccc23)C1 [Example 204, (3R)—N-[(3R,5S)-5-methyl-1-[8-(trifluoromethyl)quinolin-5-yl]piperidin-3-yl]pyrrolidine-3-carboxamide]
< 75	< 75	C[C@H]1C[C@@H](NC(=O)C2(F)CCNC2)CN(c2ccc(C(F)(F)F)c3ncccc23)C1 (stereo partly drawn) [Example 205, 3-fluoro-N-[(3R,5S)-5-methyl-1-[8-(trifluoromethyl)quinolin-5-yl]piperidin-3-yl]pyrrolidine-3-carboxamide]

Structure (SMILES)	IC50 (TLR7) [nM]	IC50 (TLR8) [nM]
N#Cc1ccc(N2C[C@H](NC(=O)C3CCCNC3)C[C@H](C(F)(F)F)C2)c2cccnc12 (stereo partly drawn) [Example 185, Piperidine-3-carboxylic acid [(3R,5S)-1-(8-cyano-quinolin-5-yl)-5-trifluoromethyl-piperidin-3-yl]-amide]	> 150	75 to 150
C[C@H]1C[C@@H](NC(=O)CCC2CCN(C)CC2)CN(c2ccc(C#N)c3ncncc23)C1 [Example 191, N-[(3R,5S)-1-(8-Cyano-quinazolin-5-yl)-5-methyl-piperidin-3-yl]-3-(1-methyl-piperidin-4-yl)-propionamide]	75 to 150	75 to 150
C[C@H]1C[C@@H](NC(=O)CC2(F)CCN(C)CC2)CN(c2ccc(C#N)c3nccnc23)C1 [Example 192, N-[(3R,5S)-1-(8-Cyano-quinoxalin-5-yl)-5-methyl-piperidin-3-yl]-2-(4-fluoro-1-methyl-piperidin-4-yl)-acetamide]	< 75	< 75
C[C@H]1C[C@@H](NC(=O)CCn2ccnc2)CN(c2ccc(C#N)c3nccnc23)C1 [Example 193, N-[(3R,5S)-1-(8-Cyano-quinoxalin-5-yl)-5-methyl-piperidin-3-yl]-3-imidazol-1-yl-propionamide]	< 75	< 75
C[C@H]1C[C@@H](NC(=O)CCN2CCOCC2)CN(c2ccc(C#N)c3nccnc23)C1 [Example 194, N-[(3R,5S)-1-(8-Cyano-quinoxalin-5-yl)-5-methyl-piperidin-3-yl]-3-morpholin-4-yl-propionamide]	75 to 150	< 75
C[C@H]1C[C@@H](NC(=O)CCS(=O)(=O)N(C)C)CN(c2ccc(C#N)c3nccnc23)C1 [Example 195, N-[(3R,5S)-1-(8-Cyano-quinoxalin-5-yl)-5-methyl-piperidin-3-yl]-3-dimethylsulfamoyl-propionamide]	75 to 150	75 to 150
